Measured values taken from paper PMC6161179, “Looking for Novel Capsid Protein Multimerization Inhibitors of Feline Immunodeficiency Virus” (Pharmaceuticals, 2018).
Like-named read-outs stand apart in the source and are kept apart here.

Key:
HIV-1 capsid protein = tested on: HIV-1 capsid protein; set-up: method as in PMID 12662926; conditions: read-out: EC50 (affinity); cited from earlier work
HIV-1 = tested on: HIV-1; set-up: method as in PMID 12662926; conditions: at 100 µM; cited from earlier work
FIV CA (p24) [1] = target: T1, FIV CA (p24) (Feline immunodeficiency virus, UniProt P16087); experiment: Microscale thermophoresis (MST) binding to CA
T1 construct: The FIV CA protein was expressed and purified mostly as described; made in house; host or cells: Escherichia coli BL21(DE3) pLysS
T1 sequence (P16087 136-357): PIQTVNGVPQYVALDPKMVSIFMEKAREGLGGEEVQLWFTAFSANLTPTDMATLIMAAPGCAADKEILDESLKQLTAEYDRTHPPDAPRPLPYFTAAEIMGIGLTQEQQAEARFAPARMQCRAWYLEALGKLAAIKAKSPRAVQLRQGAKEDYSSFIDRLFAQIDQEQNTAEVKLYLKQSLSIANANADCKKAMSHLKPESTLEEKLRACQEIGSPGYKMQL
Description: The major disadvantage of this method is the interference of the compound with the measurement, either by autofluorescence or quenching.
We explored the binding affinity at two different times (10 and 60 min) to enhance the poetical interactions.
MTS experiments were performed according to the NanoTemper technologies protocol in a Monolith NT.115 (green/blue) instrument (NanoTemper Technologies, München, Germany). With this technique, the diffusion behavior of a labeled protein is measured when an infrared light excites the movement of the protein in capillaries. This behavior is the combination of two effects: the fast, local environment dependent responses of the fluorophore to the temperature jump and the slower diffusive thermophoresis fluorescence changes. It will be modified when the protein is complexed with increasing amounts of unlabeled partners, leading to titration curves that can be fit for Kd estimation. In practice, CA was labeled with the Monolith His-Tag Labeling Kit RED-tris-NTA (NanoTemper Technologies, München, Germany), as described by the manufacturer. The experiments were performed using 20% and 40% MST power and between 20–80% LED power at 24 °C. The MST traces were recorded using the standard parameters: 5 s MST power off, 30 s MST power on, and 5 s MST power off. The compounds were used at high concentrations (around 5 mM) in the bindings check assay with DMSO at 5% v/v. If the binding check was positive, then the affinity determination was performed with the same experimental settings, with serial 2× dilutions of the compound of interest.

FIV CA (p24) [2] = target: T1, FIV CA (p24); experiment: In vitro CA assembly assay (spectrophotometry / light scattering); assay type: biochemical; conditions: re-validated by light scattering and spectrophotometry; compounds at 25 or 50 µM
Description: Indeed, our initial assay used light scattering and could only monitor the assembly of one sample per experiment on 40 min kinetics. […] The use of the spectrometric technique to follow capsid assembly has been described for HIV [24] and is based on the detection of capsid assembly via the measurement of the increase of medium turbidity. The use of this technique to monitor FIV p24 assembly allowed us to use 384-well plates, reducing the volume of protein to 15 µL per sample and allowing a testing of 10 compounds, in duplicate, in 40 min. Moreover, in this format, the protein concentration (5 mg/mL) was enough to start the assembly without needing the high concentration of salt used in the HIV in vitro assembly assay. High salt concentration could cause a problem by interfering with the solvation and solubility of some molecules and the loss of their interaction with the target. The only limitation of this method using low volumes was the risk of introducing air bubbles in the reaction, which interfere negatively in the absorbance measurement. However, this issue was solved by a careful manipulation in the filling process of the plates.
With this spectrometric assembly assay, we were able to discriminate two different behaviors for compounds interfering with the assembly of FIV CA: the enhancement of the assembly or its inhibition. The enhancement of assembly is associated with an increase of the diameter of the assembled objects and could result in a disordered or altered capsid with a loss of function. Inhibition is the classical effect which would impair the formation of the capsid (Figure 3).
High nitrogen content heretocycles were not a good source of bioactive molecules. Some compounds with structural similarities with Bevirimat were also active, like some steroid compounds clustered in diverse families. […] We could not find active molecules in four families (i.e., selenium containing compounds, flavones, triazines, and indazoles).
The CA assembly assay was performed in a final volume of 50 μL in 384-well plates, with a final concentration of 5 mg/mL of purified recombinant FIV […] in 50 mM NaH2PO4 and 1 M NaCl, pH 7.4. Absorbance is measured at 340 nm every 30 s in a multiplate reader Varioskan^TM Flash Multimode Reader (Thermo Scientific^TM, Waltham, MA, USA) at 38 °C for 30 min. The compounds were tested at a fixed initial dose of 25 or 50 μM (at 0.5% DMSO v/v) by adding 1 µL of the concentrated ligand were added to the well before starting the measurement. The controls were CA at 5 mg/mL in only 0.5% DMSO v/v and CA without DMSO. The criteria to select active compounds were the observation of at least 50% of assembly inhibition at these doses, based on the reduction of the OD value at 340 nm at the plateau value compared to the controls.

[3] = tested on: J774.1 murine macrophage cells; experiment: MTT cytotoxicity assay in J774.1 murine macrophages; assay type: cell-based; conditions: compound at 100µM, 48 h
Description: (§1) Vero cell lines (ATCC, Rockville, MD, USA) were cultivated in Dulbecco’s modified Eagles medium (DMEM) with 10% FCS in a humid atmosphere of 5% CO2 at 37 °C. Vero cells were seeded in 96-well plates at an initial density of 5 × 10^3 cells per well. J774.1 murine macrophage cells (ATCC, Manassas, VA, USA) were grown in DMEM culture milieu containing 4 mM L-glutamine and supplemented with 10% FCS. The cells were seeded in a 96-well plate (5 × 10^4 cells in 200 µL culture medium) and incubated at 37 °C in a 5% CO2 atmosphere for 48 h, to allow cell adhesion prior to drug testing. Both cell lines were exposed for 48 h (at 37 °C and 5% CO2) to the compounds (100 µM) or the solvent (0.4% DMSO) for the control, and additional controls (cells in medium) were used in each test. The cytotoxicity of the compounds was evaluated by MTT reduction assays. To proceed with the MTT assay, 20 μL of 3-(4,5-dimethylthiazol-2-yl)-2,5-diphenyl-2H-tetrazolium bromide (MTT) 5 mg/mL solution dissolved in 1× PBS was added to the wells and incubated for 4 h at 37 °C in a 5% CO2 controlled atmosphere. Next, the medium was aspirated and 100 μL of DMSO was added to each well and incubated at room temperature in the dark for 15 min with moderate orbital shaking. Optical density (OD) was read in a plate spectrophotometer (Thermo Scientific Varioskan® Flash Multimode, Waltham, MA, USA) at 570 and 690 nm wavelengths. Each experiment was performed in triplicate. For the statistical analyses, the GraphPad Prism 6 was used. Dunnett’s multiple comparison tests and Student’s T-test were used when we compared the averages of each condition with the control.

Vero cell lines = experiment: MTT cytotoxicity assay in Vero cells; assay type: cell-based; conditions: compound at 100µM, 48 h
Description: as §1

murine macrophages = tested on: murine macrophages; set-up: method as in PMID 28481276; conditions: read-out: cytotoxicity IC50; cited from earlier work
[4] = tested on: five different enzymes from pathogen parasites; set-up: method as in PMID 20889239, PMID 28481276; conditions: at 100 µM; cited from earlier work
[5] = tested on: murine acute infection model of the Chagas disease; set-up: method as in PMID 26492824; conditions: 100 mg/kg body for 15 days; cited from earlier work
[6] = 1 h (60 min), read-out: 1h EC50

SMILES	EC50 (FIV CA (p24) [1]; 10 min, read-out: 10 min EC50) [µM]	EC50 (FIV CA (p24) [1]; [6]) [µM]	inhibition of the assembly (FIV CA (p24) [2])	Murine macrophages (grown %) [3] [%]	VERO (grown %) (Vero cell lines) [%]	inhibitory effects [4]	further results
Cc1ccc(NC(=O)NCCSCc2ccc(CN(C)C)o2)cc1Cl [CAP-1]	–	–	–	–	–	–	EC50 (HIV-1 capsid protein): 60 µM; activity in the in vitro infection assay (HIV-1): active
O=C1C(=Cc2ccc([N+](=O)[O-])cc2)C(=O)N(CCc2ccccc2)S(=O)(=O)N1CCc1ccccc1 [compound 110]	1100	789	–	–	–	–	–
Nc1ccc(S(=O)(=O)c2ccc(Nc3c([N+](=O)[O-])c(Nc4ccc(S(=O)(=O)c5ccc(N)cc5)cc4)c4no[n+]([O-])c4c3[N+](=O)[O-])cc2)cc1 [compound 703]	320	720	–	–	–	–	–
C=CCn1c(C(=O)O)cs\c1=N/N=C/C=C/c1ccc(C)o1 [compound 789]	640	655	–	–	–	–	–
CC(/C=N/N1CCSCC1)=C\c1ccco1 [compound 878]	119	166	inhibition of the assembly	98±8	100±8	did not display inhibitory effects	EC50 (FIV CA (p24) [1]; 1 h (60 min), Figure 5 panel A, read-out: 1h EC50): 166 µM; IC50 (murine macrophages): > 100 µM
C=CCn1c(C)cs\c1=N/N=C/C=C/c1cccs1 [compound 1128]	322	484	–	–	–	–	–
O=C(O)c1cs/c(=N/N=C/C=C/C=C/c2cccs2)n1-c1ccccc1 [compound 1136]	212	83	inhibition of the assembly	95±7	100±9	did not display inhibitory effects	–
C=CCN1C(=O)CS\C1=N/N=C/C=C/c1cccs1 [compound 1138]	242	180	–	–	–	–	–
O=C1/C(=C/C=C/c2ccccc2)CC/C1=C\C=C\c1ccccc1 [compound 1246]	390	239	inhibition of the assembly	79±9	89±5	did not display inhibitory effects	IC50 (murine macrophages): > 100 µM; toxic effect [5]: without toxic effect
C=CCn1c(C(=O)O)cs/c1=N\N=C\c1ccc(/C=N/N=c2\scc(C(=O)O)n2CC=C)cc1 [compound 1310]	655	670	inhibition of the assembly	98±7	95±7	did not display inhibitory effects	–
C=CCNC(=S)N/N=C/c1ccc2c(c1)c1cc(/C=N/NC(=S)NCC=C)ccc1n2CC(CC)CCCC (centres unmarked) [compound 1368]	–	35	–	–	–	–	–
